In experiment [1] the test system is gastric juice secretion. In words: Shay rat pylorus ligation method (gastric juice secretion-inhibiting activity). The class given is in vivo, male Wistar rats. The note with it: 100 mg/kg, 4 hours after ligation; for inhibition in vivo at 100 mg/kg: Rattus norvegicus, 4 h. The procedure:
The pharmacological activities of the compounds (1) were tested by a Shay rat pylorus ligation method (cf. H. Shay et al: Gastroenterol., Vol. 5, page 43, 1945) which is the most popular method for testing of gastric juice secretion-inhibiting activity. The test was carried out by using male Wistar rats, weighing about 170 g and fasting for 24 hours.
Test compounds were administered 30 minutes before the pylorus ligation in a dose of 100 mg/kg in subcutaneous route in case of test compounds 37, 38, 50, 51 and 52, in a dose of 200 mg/kg in subcutaneous route in case of test compounds 105 and 106 and in dose of 100 mg/kg in duodenal route in case of other test compounds, and the volume, total acidity and pepsin activity of the gastric juice were measured 4 hours after the ligation. As a control, a saline solution was administered instead of the test compound. The inhibitory ratio (%) of the test compounds were calculated when the inhibitory activities of the control were counted as zero (0).
(§1) In the table, the inhibitory ratio (%) was evaluated as follows: […]

Experiment [2] relates to stress ulcer. The experiment in a line: Stress ulcer (restraint and water immersion). The class given is in vivo, male Wistar rats. The note with it: Rattus norvegicus, po, 7 h, read-out: Inhibitory ratio of stress ulcer; for inhibition in vivo at 300 mg/kg: 0.5% CMC suspension; for inhibition in vivo: concentration of 1×10^-3 mole. On the procedure:
After male Wistar rats weighing about 170 g was fasted for 24 hours, the rats were restrained in a stress cage and dipped in water bath at 23° C. till chest of the animals. After 7 hours, the rats were killed and the stomach was isolated. Into the isolated stomach 10% formalin (8 ml) was poured and settled. The stomach was cut open at the greater curvature, and the length of each ulcer on the membrane was measured. Sum of the length of all ulcers was shown as ulcer index (UI). The test compound was orally administered to the rats before restraint in a stress cage in a dose of 300 mg/kg in the form of 0.5% CMC suspension in case of test compounds 3, 4, 6, 15 and 27 and in a concentration of 1×10^-3 mole in case of other test compounds. As a control, only the solvent (CMC solution) was administered likewise. The inhibitory ratio (%) of stress ulcer of the test compounds was calculated by the following equation: [formula]
as §1

The mark [3] stands for this setting: duodenal route, read-out: Inhibitory ratio, volume of gastric juice.
Setting [4] is: sc, subcutaneous route, read-out: Inhibitory ratio, pepsin activity.
[5] abbreviates: sc, subcutaneous route, read-out: Inhibitory ratio, total acidity.
Where [6] appears, read: sc, subcutaneous route, read-out: Inhibitory ratio, volume of gastric juice.

Molecules are shown by their SMILES. Where two headings read alike, the source gives them in different places.

For `Cn1nnnc1SCCCSc1ccccc1` [Test compound 10, 1-Methyl-5-(3-phenylthiopropyl)thio-1,2,3,4-tetrazole], the inhibition in vivo at 100 mg/kg in experiment [1] (setting [3]) was 10 to 50%.

Take `Cn1ccnc1SCCCSc1nnnn1C` [Test compound 11, 1-Methyl-5-[3-(1-methylimidazol-2-yl)thiopropyl]thio-1,2,3,4-tetrazole]: the inhibition in vivo at 100 mg/kg in experiment [1] (setting [3]) was above 50%.

Turning to `Cc1ccnc(SCCCSc2nnnn2C)n1` [Test compound 13, 1-Methyl-5-[3-(4-methyl-2-pyrimidyl)thiopropyl]thio-1,2,3,4-tetrazole], the inhibition in vivo at 100 mg/kg in experiment [1] (setting [3]) is above 50%. `Cc1nnc(SCCCSc2nnnn2C)n1C` [Test compound 15, 1-Methyl-5-[3-(4,5-dimethyl-1,2,4-triazol-3-yl)thiopropyl]thio-1,2,3,4-tetrazole]: the inhibition in vivo at 300 mg/kg in experiment [2] is above 60%. Regarding `Cn1nnnc1SCCCSCc1csc(N)n1` [Test compound 17, 1-Methyl-5-[3-(2-amino-4-thiazolyl)methylthiopropyl]thio-1,2,3,4-tetrazole], in experiment [1] (setting [3]), the inhibition in vivo at 100 mg/kg fell in the range of 10 to 50%. Further, the inhibition in vivo in experiment [2] was above 60%. For the molecule `Cn1nnnc1SCCCSc1ccc2ccccc2n1` [Test compound 18, 1-Methyl-5-[3-(2-quinolyl)thiopropyl]thio-1,2,3,4-tetrazole], in experiment [1] (setting [3]), the inhibition in vivo at 100 mg/kg lay within 10 to 50%. Turning to `Cn1nnnc1SCCCSc1nc2ccccc2[nH]1` [Test compound 19, 1-Methyl-5-[3-(2-benzimidazolyl)thiopropyl]thio-1,2,3,4-tetrazole], the inhibition in vivo at 100 mg/kg in experiment [1] (setting [3]) lay in the range of 10 to 50%. Regarding `Cn1nnnc1SCCCSCc1ccco1` [Test compound 21, 1-Methyl-5-[3-(2-furyl)methylthiopropyl]thio-1,2,3,4-tetrazole], the inhibition in vivo at 100 mg/kg in experiment [1] (setting [3]) is above 50%. With `Cn1nnnc1SCCCSCc1ccccc1` [Test compound 22, 1-Methyl-5-(3-benzylthiopropyl)thio-1,2,3,4-tetrazole], the inhibition in vivo at 100 mg/kg in experiment [1] (setting [3]) is above 50%. Consider `Cn1nnnc1SCCCSCc1ccccn1` [Test compound 23, 1-Methyl-5-[3-(2-pyridyl)methylthiopropyl]thio-1,2,3,4-tetrazole], for which, in experiment [1] (setting [3]), the inhibition in vivo at 100 mg/kg fell in the range of 10 to 50%. `Cn1nnnc1SCCCSc1ccncc1` [Test compound 25, 1-Methyl-5-[3-(4-pyridyl)thiopropyl]thio-1,2,3,4-tetrazole]: in experiment [2], the inhibition in vivo is above 60%.

With `Br.CNC(=N)SCCCCSc1nnnn1C` [Test compound 27, 1-Methyl-2-[4-(1-methyl-1,2,3,4-tetrazol-5-yl)thiobutyl]isothiourea hydrobromide], the “Inhibitory ratio, volume of gastric juice” value in experiment [1] (duodenal route) was “+ +”. In addition, the inhibition in vivo at 300 mg/kg in experiment [2] was above 60%. For the molecule `Cn1nnnc1SCCCCSc1ccccc1` [Test compound 28, 1-Methyl-5-(4-phenylthiobutyl)thio-1,2,3,4-tetrazole], the inhibition in vivo at 100 mg/kg in experiment [1] (setting [3]) fell in the range of 10 to 50%. As for `Cn1nnnc1SCCCCSc1nc2ccccc2c(=O)[nH]1` [Test compound 29, 1-Methyl-5-[4-(4-oxo-3,4-dihydroquinazolin-2-yl)thiobutyl]thio-1,2,3,4-tetrazole], the inhibition in vivo at 100 mg/kg in experiment [1] (setting [3]) is 10 to 50%. As for `Cn1nnnc1SCCCCCSc1ccccn1` [Test compound 32, 1-Methyl-5-[5-(2-pyridyl)thiopentyl]thio-1,2,3,4-tetrazole], in experiment [1] (setting [3]), the inhibition in vivo at 100 mg/kg was in the range of 10 to 50%. Take `Cn1nnnc1SCCSc1nnnn1C` [Test compound 35, 1-Methyl-5-[2-(1-methyl-1,2,3,4-tetrazol-5-yl)thioethyl]thio-1,2,3,4-tetrazole]: the “Inhibitory ratio, volume of gastric juice” value in experiment [1] (duodenal route) was “+ +”. For `Cn1nnnc1SCCCSc1nnnn1C` [Test compound 37, 1-Methyl-5-[3-(1-methyl-1,2,3,4-tetrazol-5-yl)thiopropyl]thio-1,2,3,4-tetrazole], the inhibition in vivo at 100 mg/kg in experiment [1] (setting [4]), in experiment [1] (setting [5]) and in experiment [1] (setting [6]) was above 50% throughout. Take `c1ccc(-n2nnnc2SCCCSc2nnnn2-c2ccccc2)cc1` [Test compound 38, 1-Phenyl-5-[3-(1-phenyl-1,2,3,4-tetrazol-5-yl)thiopropyl]thio-1,2,3,4-tetrazole]: the inhibition in vivo at 100 mg/kg in experiment [1] (setting [4]), in experiment [1] (setting [5]) and in experiment [1] (setting [6]) was 10 to 50% in each case.

`Cn1nnnc1SCCCSc1ccc([N+](=O)[O-])cn1` [Test compound 40, 1-Methyl-5-[3-(5-nitro-2-pyridyl)thiopropyl]thio-1,2,3,4-tetrazole]: the inhibition in vivo in experiment [2] was above 60%.

Regarding `Cc1nnc(SC(C)CCSc2nnnn2C)o1` (stereo not drawn) [Test compound 42, 1-Methyl-5-[3-methyl-3-(5-methyl-1,3,4-oxadiazol-2-yl)thiopropyl]thio-1,2,3,4-tetrazole], the inhibition in vivo in experiment [2] is above 60%. As for `Cn1nnnc1[S+]([O-])CCCCSc1ccccn1` (stereo not drawn) [Test compound 45, 1-Methyl-1,2,3,4-tetrazol-5-yl 4-(2-pyridyl)thiobutyl sulfoxide], in experiment [2], the inhibition in vivo was above 60%. For `Cn1nnnc1SCCCCS(=O)(=O)c1nnnn1C` [Test compound 47, 4-(1-Methyl-1,2,3,4-tetrazol-5-yl)thiobutyl 1-methyl-1,2,3,4-tetrazol-5-yl sulfone], the inhibition in vivo at 100 mg/kg in experiment [1] (setting [3]) was above 50%. Take `Cn1nnnc1SCCCS(=O)(=O)c1ccccn1` [Test compound 48, 3-(1-Methyl-1,2,3,4-tetrazol-5-yl)thiopropyl 2-pyridyl sulfone]: the inhibition in vivo at 100 mg/kg in experiment [1] (setting [3]) fell in the range of 10 to 50%. As for `CC(CC[S+]([O-])c1nnnn1C)Sc1nnnn1C` (stereo not drawn) [Test compound 49, 1-Methyl-1,2,3,4-tetrazol-5-yl 3-methyl-3-(1-methyl-1,2,3,4-tetrazol-5-yl)thiopropyl sulfoxide], in experiment [2], the inhibition in vivo is above 60%. For the molecule `CCC(=O)CCCSc1nnnn1C` [Test compound 50, 1-Methyl-5-(3-propionylpropyl)thio-1,2,3,4-tetrazole], the inhibition in vivo at 100 mg/kg in experiment [1] (setting [4]), in experiment [1] (setting [5]) and in experiment [1] (setting [6]) was above 50% throughout. Turning to `COc1ccc(C(=O)CCCSc2nnnn2C)cc1` [Test compound 63, 1-Methyl-5-[3-(4-methoxybenzoyl)propyl]thio-1,2,3,4-tetrazole], the inhibition in vivo at 100 mg/kg in experiment [1] (setting [3]) is 10 to 50%.

`Cn1nnnc1SCCCCC(=O)c1ccccc1` [Test compound 71, 1-Methyl-5-(4-benzoylbutyl)thio-1,2,3,4-tetrazole]: the inhibition in vivo at 100 mg/kg in experiment [1] (setting [3]) lay in the range of 10 to 50%. `CCCCOc1ccc(C(=O)CCCSc2nnnn2C)cc1` [Test compound 79, 1-Methyl-5-[3-(4-butoxybenzoyl)propyl]thio-1,2,3,4-tetrazole]: the inhibition in vivo in experiment [2] is above 60%. Turning to `Cn1nnnc1SCCCNC(=O)C1CCCCC1` [Test compound 81, 1-Methyl-5-(3-cyclohexylcarbonylaminopropyl)thio-1,2,3,4-tetrazole], the inhibition in vivo at 100 mg/kg was in the range of 10 to 50% in experiment [1] (duodenal route, read-out: Inhibitory ratio, pepsin activity); 10 to 50% in experiment [1] (duodenal route, read-out: Inhibitory ratio, total acidity); 10 to 50% in experiment [1] (setting [3]).

With `CC(=O)N(C)CCCSc1nnnn1C` [Test compound 83, 1-Methyl-5-[3-(N-methyl-N-acetylamino)propyl]thio-1,2,3,4-tetrazole], in experiment [2], the inhibition in vivo is above 60%.

Consider `CCN(CCCSc1nnnn1C)C(=O)C1CCCC1` [Test compound 92, 1-Methyl-5-[3-(N-ethyl-N-cyclopentylcarbonylamino)propyl]thio-1,2,3,4-tetrazole], for which the inhibition in vivo at 100 mg/kg in experiment [1] (setting [3]) is 10 to 50%. In the case of `Cn1nnnc1SCc1ccccn1` [Test compound 98, 1-Methyl-5-(2-pyridylmethyl)thio-1,2,3,4-tetrazole], in experiment [1] (setting [3]), the inhibition in vivo at 100 mg/kg is above 50%. For the molecule `Cc1nnnn1CCCC(=O)N1CCN(C)CC1` [Test compound 112, 5-Methyl-1-[3-(4-methyl-1-piperazinylcarbonyl)propyl]-1,2,3,4-tetrazole], the inhibition in vivo in experiment [2] is above 60%. As to `COc1ccc(CCNC(=O)CCCn2nnnc2C)cc1OC` [Test compound 114, N-[2-(3,4-Dimethoxyphenyl)ethyl]-4-(5-methyl-1,2,3,4-tetrazol-1-yl)butyramide], the inhibition in vivo in experiment [2] was 30 to 60%.

On to `Cc1nnnn1CCCC(=O)N1CCOCC1` [Test compound 117, 5-Methyl-1-(3-morpholinocarbonylpropyl)-1,2,3,4-tetrazole], for which the inhibition in vivo in experiment [2] was 30 to 60%.
